From article PMC12150283, “Synthesis of new Ag(I) and Cd(II) hydrozanomide-based complexes with antibacterial and anticancer properties” (RSC Advances, 2025)
Converted amounts (≈) assume the structure as drawn. Where two headings read alike, the source gives them in different places.

How the values were obtained:
[1] = system: Salmonella typhimurium ATCC 14028; test: MIC determination; type: cell-based; conditions: 18 h
Description: (§1) The antibacterial activity of tested samples was assessed against both gram-positive bacteria (Staphylococcus aureus ATCC 25923, Staphylococcus aureus ATCC 6538, Staphylococcus epidermidis ATCC 12228, Enterococcus faecalis ATCC 29212, Listeria monocytogenes ATCC 19115, Bacillus subtilis ATCC 6633, Bacillus cereus ATCC 10876) and gram-negative bacteria (Escherichia coli ATCC 10530, Salmonella typhimurium ATCC 14028). Antibacterial properties were evaluated using both the dilution method (employing DMSO and 96-well plates) and the diffusion-well method (using Mueller Hinton Agar, Merck, Germany).
(§2) The minimum inhibitory concentrations (MICs) of the tested samples were evaluated against a panel of reference microorganisms obtained from the American Type Culture Collection (ATCC), including Gram-negative bacteria (Escherichia coli ATCC 10530, Salmonella typhimurium ATCC 14028), and Gram-positive bacteria (Staphylococcus aureus ATCC 25923, Staphylococcus aureus ATCC 6538, Staphylococcus epidermidis ATCC 12228, Enterococcus faecalis ATCC 29212, Listeria monocytogenes ATCC 19115, Bacillus subtilis ATCC 6633), and one strain (Bacillus cereus ŁOCK 0807) obtained from the Pure Culture of Industrial Microorganisms of the Institute of Fermentation Technology and Microbiology ŁOCK 105 (Łódź, Poland).
(§3) The microorganism cultures with a density of 1.5 × 10^8 CFU mL^−1 (corresponding to a McFarland standard of 0.5) were plated on Mueller–Hinton Agar (Merck, Germany) following the procedures recommended by the European Committee on Antimicrobial Susceptibility Testing (EUCAST).[47] Wells measuring 10 mm in diameter were cut into the medium. The tested compounds were dissolved in a DMSO solution, which was recommended due to their chemical structures. Subsequently, 100 μL of prepared solutions containing the tested compounds at concentrations ranging from x μg mL^−1 to x μg mL^−1 were added to each well. The plates were incubated at 30 °C (for Bacillus subtilis and Bacillus cereus) or 37 °C (for other bacteria) for 18 hours. After incubation, the minimum inhibitory concentration (MIC value) was determined (the lowest concentration of the tested compounds that prevents bacterial growth) and expressed in μg mL^−1. The experiment was conducted in three independent replicates. Ciprofloxacin (Sigma Aldrich, Saint Louis, MO, USA) was used as a reference antimicrobial agent against Gram-negative bacteria, while vancomycin (Sigma Aldrich, Saint Louis, MO, USA) was used as a reference antimicrobial agent against Gram-positive bacteria.

[2] = system: Escherichia coli ATCC 10530; test: MIC determination; type: cell-based; conditions: Escherichia coli ATCC 10530; 18 h
Description: as §1, §2, §3

[3] = system: glioblastoma LN-229 cells; test: MTT cell viability assay; type: cell-based, human; conditions: 48 hours of incubation
Description: (§4) The glioblastoma cell lines LN-229 and U87 and the reference human normal skin fibroblast BJ were obtained from the American Type Culture Collection (ATCC). Cells were grown as monolayers when cultured in cell culture flasks and cultured in Dulbecco's Modified Eagle Medium (DMEM) – LN-229 and Eagle's Minimum Essential Medium (EMEM) – U87 and BJ, supplemented with 10% (v/v) fetal bovine serum, penicillin (10 000 U mL^−1), streptomycin (10 mg mL^−1) and amphotericin B (250 μg mL^−1). The cells were incubated at 37 °C, 5% CO2 atmosphere. The cells were maintained in the logarithmic growth phase by regular passage at 80% confluence.
(§5) The cytotoxicity of the tested compounds was evaluated against both human glioblastoma LN-229 and U-87 as well as normal BJ cell lines. The cells were plated in 96-well culture plates (2 × 10^4 well) and after 24 h incubation the cells were treated with the tested compounds in the concentration range 1–50 μM. The cells were cultured for the next 48 h. The cytotoxicity of the compounds was evaluated using the MTT colorimetric method as previously described.[28,29] IC50 values were determined using the AAT Bioquest IC50 calculator as the concentration of compounds capable of reducing cell viability by 50%. The experiment was performed in triplicate for each concentration. To examine the cytotoxic effect of compounds on cell morphology, cells were examined under an inverted phase contrast microscope Nikon Eclipse Ti with NIS Element software (Tokyo, Japan).

[4] = system: normal skin fibroblast BJ cells; test: MTT cell viability assay; type: cell-based, human; conditions: BJ normal fibroblasts, 48 hours of incubation
Description: as §4, §5

glioblastoma U87 cells = test: MTT cell viability assay; type: cell-based, human; conditions: 48 hours of incubation
Description: as §4, §5

E. coli ATCC 10530 = test: Diffusion-well method, inhibition zones; type: cell-based, Escherichia coli; conditions: 500 µg/mL, wells 10 mm
Description: as §1
(§6) 24 hour bacterial cultures with a density of 1–2 × 10^8 CFU mL^−1 were plated (0.1 mL) on Mueller–Hinton Agar (Merck, Germany). Subsequently, wells with a diameter of 10 mm were cut out from and filled with 100 μL of the tested compound at a concentration of 10–500 μg mL^−1 (diluted in DMSO). After an 18-hour incubation at either 30 °C (for Bacillus ssp.) or 37 °C (for other tested microorganisms), the inhibition zones around the wells were measured, and the results were expressed in millimetres (Table S9 ^†).

B. cereus ŁOCK 0807 = test: Diffusion-well method, inhibition zones; type: cell-based, Bacillus cereus; conditions: 500 µg/mL, wells 10 mm
[5] = system: Staphylococcus aureus ATCC 6538; test: MIC determination; type: cell-based; conditions: S. aureus ATCC 6538, 18 h
Description: as §1, §2, §3

[6] = system: Enterococcus faecalis ATCC 29212; test: MIC determination; type: cell-based; conditions: E. faecalis ATCC 29212, 18 h
Description: as §1, §2, §3

[7] = system: Bacillus cereus ŁOCK 0807; test: MIC determination; type: cell-based; conditions: 18 h
Description: as §1, §2, §3

[8] = system: Listeria monocytogenes ATCC 19115; test: MIC determination; type: cell-based; conditions: Listeria monocytogenes ATCC 19115, 18 h
Description: as §1, §2, §3

[9] = system: Staphylococcus epidermidis ATCC 12228; test: MIC determination; type: cell-based; conditions: S. epidermidis ATCC 12228, 18 h
Description: as §1, §2, §3

[10] = system: Bacillus subtilis ATCC 6633; test: MIC determination; type: cell-based
Description: as §1, §2, §3

[11] = system: Staphylococcus aureus ATCC 25923; test: MIC determination; type: cell-based; conditions: S. aureus ATCC 25923, 18 h
Description: as §1, §2, §3

S. aureus ATCC 6538 = test: Diffusion-well method, inhibition zones; type: cell-based, Staphylococcus aureus; conditions: 500 µg/mL, wells 10 mm
Description: as §1, §6

S. aureus ATCC 25923 = test: Diffusion-well method, inhibition zones; type: cell-based, Staphylococcus aureus; conditions: 500 µg/mL, wells 10 mm
Description: as §1, §6

[12] = system: L. monocytogenes ATCC 19115; test: Diffusion-well method, inhibition zones; type: cell-based, Listeria monocytogenes; conditions: 500 µg/mL, wells 10 mm
Description: as §1, §6

[13] = Time-dependent UV-vis solution stability in DMSO; type: physicochemical; conditions: 0 min to 48 h, room temperature
Source text: The stability of metal complexes is a crucial property that provides insight into their interactions with biological molecules, as it directly impacts their reactivity, bioavailability, and effectiveness in therapeutic applications. Additionally, the solubility of these complexes in dimethyl sulfoxide (DMSO) is of considerable importance, as solubility data are essential for optimizing storage conditions and ensuring compatibility with biological assays.[39] DMSO, a widely used solvent in drug discovery, serves as a medium that supports the stability and bioavailability of complexes under assay conditions, which is critical for maintaining the integrity of analytical protocols and enabling accurate assessments of biological activity. For the obtained complexes, the time-dependent UV-vis investigations in DMSO (Fig. 5 and S9 ^†) were carried out from 0 min to 48 h (0 min, 30 min, 1 h, 2 h, 3 h, 24 h, 48 h).
The sample solutions (50 μL (1.0 × 10^−3 M)) of the complexes were prepared in DMSO (Sigma Aldrich, ≥99.9%). The absorption spectra of the complexes were measured with increasing time (0 min, 30 min, 60 min, 2 h, 3 h, 24 h, 48 h) at room temperature. All measurements were performed on the Shimadzu UV-2401PC.

E. faecalis ATCC 29212 = test: Diffusion-well method, inhibition zones; type: cell-based, Enterococcus faecalis; conditions: 500 µg/mL, wells 10 mm
Description: as §1, §6

B. subtilis ATCC 6633 = test: Diffusion-well method, inhibition zones; type: cell-based, Bacillus subtilis; conditions: 500 µg/mL, wells 10 mm
Description: as §1, §6

| Compound | MIC [2] | IC50 [3] | IC50 [4] | IC50 (glioblastoma U87 cells) | Inhibition zone (E. coli ATCC 10530) | MIC ([1]; S. typhimurium ATCC 14028) | MIC [5] | MIC [6] | MIC ([7]; Bacillus cereus ŁOCK 0807) | MIC [8] | MIC [9] | MIC ([10]; 18 h) | MIC [11] | Inhibition zone (S. aureus ATCC 6538) | Inhibition zone (S. aureus ATCC 25923) | hypochromic effect [13] | other results |
| --- | --- | --- | --- | --- | --- | --- | --- | --- | --- | --- | --- | --- | --- | --- | --- | --- | --- |
| O=C(O)c1cn(C2CC2)c2cc(N3CCNCC3)c(F)cc2c1=O [Ciprofloxacin, reference compound] | 1 µg/mL (≈ 3.02 µM) |  |  |  |  |  |  |  |  |  |  |  |  |  |  |  | MIC ([1]; Salmonella enterica): 1 µg/mL (≈ 3.02 µM) |
| N.N.[Cl][Pt][Cl] [Cisplatin, reference compound] |  | 29.09 ± 0.23 µM | > 50 µM | 39.6 ± 1.13 µM |  |  |  |  |  |  |  |  |  |  |  |  |  |
| NC(=NN=Cc1ccccc1)c1cc(Cl)ccn1.O=[N+]([O-])[O-].[Ag+] [Complex 3, AgL3NO3] | 10 µg/mL | > 50 µM | > 50 µM | 32 ± 7.08 µM | 20 mm | 500 µg/mL | 50 µg/mL | 50 µg/mL | 50 µg/mL | 10 µg/mL | 250 µg/mL | 10 µg/mL | 100 µg/mL | 15 mm | 15 mm | 2.31% | Inhibition zone (B. cereus ŁOCK 0807): 18 mm; Inhibition zone [12]: 19 mm; Inhibition zone (E. faecalis ATCC 29212): 13 mm; Inhibition zone (B. subtilis ATCC 6633): 17 mm |
| NC(=NN=Cc1ccc([N+](=O)[O-])cc1)c1cccc(Cl)n1.NC(=NN=Cc1ccc([N+](=O)[O-])cc1)c1cccc(Cl)n1.[Cd+2].[Cl-].[Cl-] [Complex 7, Cd (L2)2Cl2] | 500 µg/mL | > 50 µM | 41.7 ± 4.18 µM | > 50 µM | 12 mm | > 500 µg/mL | 500 µg/mL | > 500 µg/mL | > 500 µg/mL | > 500 µg/mL | > 500 µg/mL | > 500 µg/mL | 100 µg/mL | 13 mm | 15 mm | 27.7% | shift of peak maxima [13]: 15 nm |
| NC(=NN=Cc1ccccc1)c1cc(Cl)ccn1.[Cd+2].[Cl-].[Cl-] [Complex 8, CdL3Cl2] | 10 µg/mL | > 50 µM | 25.8 ± 4.48 µM | 10.9 ± 3.8 µM | 20 mm | > 500 µg/mL | 500 µg/mL | > 500 µg/mL | > 500 µg/mL | > 500 µg/mL | > 500 µg/mL | > 500 µg/mL | 100 µg/mL |  | 15 mm | 36.3% | shift of peak maxima [13]: 4 nm |
| NC(=NN=Cc1ccc([N+](=O)[O-])cc1)c1cccc(N2CCCC2)n1.[Cd+2].[Cl-].[Cl-] [Complex 9, CdL4Cl2] | 10 µg/mL | 45.3 ± 2.18 µM | 1.05 ± 0.32 µM | > 50 µM | 20 mm | > 500 µg/mL | 250 µg/mL | 10 µg/mL | 250 µg/mL | 500 µg/mL | > 500 µg/mL | > 500 µg/mL | 10 µg/mL | 13 mm | 16 mm |  | Inhibition zone (B. cereus ŁOCK 0807): 13 mm; Inhibition zone [12]: 12 mm; Inhibition zone (E. faecalis ATCC 29212): 14 mm |
| N/C(=N\N=C\c1ccc([N+](=O)[O-])cc1)c1cccc(Cl)n1 [Complex L2, 6-chloro-N′-(4-nitrobenzylidene) picolinohydrazonamide] |  |  |  |  |  |  |  |  |  |  |  |  |  |  |  |  | IC50 ([3]; Homo sapiens): 40.8 ± 6.12 µM; IC50 ([4]; Homo sapiens): 35.5 ± 4.33 µM; IC50 (glioblastoma U87 cells; Homo sapiens, U-87 MG): > 50 µM |
| NC(=NN=Cc1ccccc1)c1cc(Cl)ccn1 [Complex L3, N′-(benzylidene)-4-chloropicolinohydrazonamide] |  |  |  |  |  |  |  |  |  |  |  |  |  |  |  |  | IC50 ([3]; Homo sapiens): > 50 µM; IC50 ([4]; Homo sapiens): > 50 µM; IC50 (glioblastoma U87 cells; Homo sapiens, U-87 MG): > 50 µM |
| CN[C@H](CC(C)C)C(=O)N[C@H]1C(=O)N[C@@H](CC(N)=O)C(=O)N[C@H]2C(=O)N[C@H]3C(=O)N[C@H](C(=O)N[C@H](C(=O)O)c4cc(O)cc(O)c4-c4cc3ccc4O)[C@H](O)c3ccc(c(Cl)c3)Oc3cc2cc(c3O[C@@H]2O[C@H](CO)[C@@H](O)[C@H](O)[C@H]2O[C@H]2C[C@](C)(N)[C@H](O)[C@H](C)O2)Oc2ccc(cc2Cl)[C@H]1O [Vancomycin, vancomycin, reference compound] |  |  |  |  |  |  |  |  |  |  |  |  |  |  |  |  | MIC ([5]; Staphylococcus aureus, ATCC6538, read-out: MIC): 1 µg/mL (≈ 0.69 µM); MIC ([6]; Enterococcus faecalis, ATCC29212, read-out: MIC): 1 µg/mL (≈ 0.69 µM); MIC ([7]; Bacillus cereus): 1 µg/mL (≈ 0.69 µM); MIC ([8]; ATCC19115, read-out: MIC): 2 µg/mL (≈ 1.38 µM); MIC ([9]; Staphylococcus epidermidis, ATCC12228, read-out: MIC): 1 µg/mL (≈ 0.69 µM); MIC ([10]; ATCC6633, 18 h, read-out: MIC): 1 µg/mL (≈ 0.69 µM); MIC ([11]; Staphylococcus aureus, ATCC25923, read-out: MIC): 1 µg/mL (≈ 0.69 µM) |
